Test results published in patent US10335409B2 (priority 2012, dated 2019).
Where two headings read alike, the source gives them in different places.

Tests used:
Assay type in all cases: cell-based, hepatitis C virus
[1] = tested on: genotype 1a (H77) stable HCV replicon in Huh-7-derived cells; test: Stable subgenomic HCV replicon EC50, genotype 1a (Renilla luciferase); conditions: Hepatitis C virus, stable replicon genotype 1a, 72 h, read-out: EC50 1A RLUC
Outline: (§1)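 Compounds, three-fold diluted, were applied to Huh-7-derived cells harbouring luciferase replicons (genotype 1a H77, 1b Con1, 2a JFH-1, 4a ED43, with strain-specific adaptive mutations). Seventy-two hours later, intracellular replication was gauged by Renilla luciferase activity and EC50 derived by regression.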

[2] = tested on: genotype 3a (S52) stable HCV replicon in Huh-7-derived cells; test: Stable subgenomic HCV replicon EC50, genotype 3a (Renilla luciferase); conditions: Hepatitis C virus, 72 h, read-out: EC50 3A RLUC
[3] = tested on: genotype 1a (H77) wild type transient HCV replicon in Huh-7-derived cells; test: Transient-transfected HCV replicon EC50, genotype 1a wild type; conditions: Hepatitis C virus, 72 h, read-out: EC50 1A WT
[4] = tested on: genotype 1b (Con1) stable HCV replicon in Huh-7-derived cells; test: Stable subgenomic HCV replicon EC50, genotype 1b (Renilla luciferase); conditions: Hepatitis C virus, stable replicon genotype 1b, 72 h, read-out: EC50 1B RLUC
Outline: as §1

[5] = tested on: genotype 4a (ED43) stable HCV replicon in Huh-7-derived cells; test: Stable subgenomic HCV replicon EC50, genotype 4a (Renilla luciferase); conditions: Hepatitis C virus, 72 h, read-out: EC50 4A RLUC
Outline: as §1

[6] = tested on: genotype 1a NS3/4a protease inhibitor resistant variant R155K transient HCV replicon in Huh-7-derived cells; test: Transient-transfected HCV replicon EC50, genotype 1a R155K; conditions: Hepatitis C virus, 72 h, read-out: EC50 1A R155K, transient-transfected replicon genotype 1a R155K resistant variant, 72 h
[7] = tested on: genotype 1b (Con1) wild type transient HCV replicon in Huh-7-derived cells; test: Transient-transfected HCV replicon EC50, genotype 1b wild type; conditions: Hepatitis C virus, 72 h, read-out: EC50 1B WT
[8] = tested on: genotype 2a (JFH-1) stable HCV replicon in Huh-7-derived cells; test: Stable subgenomic HCV replicon EC50, genotype 2a (Renilla luciferase); conditions: Hepatitis C virus, stable replicon genotype 2a, 72 h, read-out: EC50 2A RLUC
Outline: as §1

[9] = tested on: genotype 3a (S52) wild type transient HCV replicon in Huh-7-derived cells; test: Transient-transfected HCV replicon EC50, genotype 3a wild type; conditions: Hepatitis C virus, 72 h, read-out: EC50 3A WT
[10] = tested on: genotype 1b NS3/4a protease inhibitor resistant variant D168A transient HCV replicon in Huh-7-derived cells; test: Transient-transfected HCV replicon EC50, genotype 1b D168A; conditions: Hepatitis C virus, 72 h, read-out: EC50 1B D168A, transient-transfected replicon genotype 1b D168A resistant variant, 72 h
[11] = transient-transfected replicon genotype 1a wild type
[12] = transient-transfected replicon genotype 1b wild type
[13] = transient-transfected replicon genotype 3a wild type

COc1ccc2nc3c(nc2c1)O[C@H]1CN(C(=O)[C@H](C(C)(C)C)NC(=O)O[C@@H]2C[C@@H]4C[C@@H]4[C@H]2CCCCC3(F)F)[C@H](C(=O)N[C@]2(C(=O)NS(=O)(=O)C3(C)CC3)C[C@H]2C(F)F)[C@@H]1C [Example 81, (1aS,2aR,6S,9S,10S,11R,23aR,23bS)-6-tert-butyl-N-[(1R,2R)-2-(difluoromethyl)-1-{[(1-methylcyclopropyl)sulfonyl]carbamoyl}cyclopropyl]-19,19-difluoro-15-methoxy-10-methyl-4,7-dioxo-1a,2,2a,4,5,6,7,10,11,19,20,21,22,23,23a,23b-hexadecahydro-1H,9H-8,11-methanocyclopropa[4′,5′]cyclopenta[1′,2′:18,19][1,10,3,6]dioxadiazacyclononadecino[11,12-b]quinoxaline-9-carboxamide]
EC50 [1]: 4 nM | EC50 [2]: 12 nM | EC50 [3, 11]: 3.7 nM | EC50 [4]: 3.6 nM | EC50 [5]: 4.3 nM | EC50 [6]: 2.5 nM | EC50 [7, 12]: 2.4 nM | EC50 [8]: 3.6 nM | EC50 [9, 13]: 4.3 nM | EC50 [10]: 2.7 nM

CC[C@@H]1[C@@H]2CN(C(=O)[C@H](C(C)(C)C)NC(=O)O[C@@H]3C[C@H]3CCCCC(F)(F)c3nc4ccc(OC(F)F)cc4nc3O2)[C@@H]1C(=O)N[C@]1(C(=O)NS(=O)(=O)C2(C)CC2)C[C@H]1C(F)F [Example 85, (1aR,5S,8S,9S,10R,22aR)-5-tert-butyl-14-(difluoromethoxy)-N-[(1R,2R)-2-(difluoromethyl)-1-{[(1-methylcyclopropyl)sulfonyl]carbamoyl}cyclopropyl]-9-ethyl-18,18-difluoro-3,6-dioxo-1,1a,3,4,5,6,9,10,18,19,20,21,22,22a-tetradecahydro-8H-7,10-methanocyclopropa[18,19][1,10,3,6]dioxadiazacyclononadecino[11,12-b]quinoxaline-8-carboxamide]
EC50 [1]: 16 nM | EC50 [2]: 304 nM | EC50 [3, 11]: 12 nM | EC50 [4]: 17 nM | EC50 [5]: 9.2 nM | EC50 [6]: 22 nM | EC50 [7, 12]: 7 nM | EC50 [8]: 7.7 nM | EC50 [9, 13]: 101 nM | EC50 [10]: 57 nM

CC[C@@H]1[C@@H]2CN(C(=O)[C@H](C(C)(C)C)NC(=O)O[C@@H]3C[C@H]3CCCCC(F)(F)c3nc4ccc(OC)cc4nc3O2)[C@@H]1C(=O)N[C@]1(C(=O)NS(=O)(=O)C2CC2)C[C@H]1CC [Example 34, (1aR,5S,8S,9S,10R,22aR)-5-tert-butyl-N-{(1R,2R)-1-[(cyclopropylsulfonyl)carbamoyl]-2-ethylcyclopropyl}-9-ethyl-18,18-difluoro-14-methoxy-3,6-dioxo-1,1a,3,4,5,6,9,10,18,19,20,21,22,22a-tetradecahydro-8H-7,10-methanocyclopropa[18,19][1,10,3,6]dioxadiazacyclononadecino[11,12-b]quinoxaline-8-carboxamide]
EC50 [1]: 12 nM | EC50 [2]: 322 nM | EC50 [3, 11]: 15 nM | EC50 [4]: 13 nM | EC50 [5]: 9.7 nM | EC50 [6]: 18 nM | EC50 [7, 12]: 9 nM | EC50 [8]: 18 nM | EC50 [9, 13]: 46 nM | EC50 [10]: 64 nM

CC[C@@H]1[C@@H]2CN(C(=O)[C@H](C(C)(C)C)NC(=O)O[C@@H]3C[C@H]3CCCCCc3nc4ccc(OC)cc4nc3O2)[C@@H]1C(=O)N[C@]1(C(=O)NS(=O)(=O)C2(C)CC2)C[C@H]1C [Example 73, (1aR,5S,8S,9S,10R,22aR)-5-tert-butyl-9-ethyl-14-methoxy-N-[(1R,2R)-2-methyl-1-{[(1-methylcyclopropyl)sulfonyl]carbamoyl}cyclopropyl]-3,6-dioxo-1,1a,3,4,5,6,9,10,18,19,20,21,22,22a-tetradecahydro-8H-7,10-methanocyclopropa[18,19][1,10,3,6]dioxadiazacyclononadecino[11,12-b]quinoxaline-8-carboxamide]
EC50 [1]: 7.9 nM | EC50 [2]: 178 nM | EC50 [3, 11]: 8.8 nM | EC50 [4]: 7.5 nM | EC50 [5]: 7.2 nM | EC50 [6]: 25 nM | EC50 [7, 12]: 6.2 nM | EC50 [8]: 22 nM | EC50 [9, 13]: 45 nM | EC50 [10]: 75 nM

CC[C@@H]1[C@@H]2CN(C(=O)[C@H](C(C)(C)C)NC(=O)O[C@]3(C)CCC[C@H]3CCCCCc3nc4ccc(OC)cc4nc3O2)[C@@H]1C(=O)N[C@]1(C(=O)NS(=O)(=O)C2CC2)C[C@H]1C(F)F [Example 40, (3aR,7S,10S,11S,12R,24aR)-7-tert-butyl-N-[(1R,2R)-1-[(cyclopropylsulfonyl)carbamoyl]-2-(difluoromethyl)cyclopropyl]-11-ethyl-16-methoxy-3a-methyl-5,8-dioxo-1,2,3,3a,5,6,7,8,11,12,20,21,22,23,24,24a-hexadecahydro-10H-9,12-methanocyclopenta[18,19][1,10,3,6]dioxadiazacyclononadecino[11,12-b]quinoxaline-10-carboxamide]
EC50 [1]: 25 nM | EC50 [2]: 360 nM | EC50 [3, 11]: 17 nM | EC50 [4]: 22 nM | EC50 [5]: 18 nM | EC50 [6]: 74 nM | EC50 [7, 12]: 8.6 nM | EC50 [8]: 48 nM | EC50 [9, 13]: 156 nM | EC50 [10]: 129 nM

COc1ccc2nc3c(nc2c1)O[C@H]1CN(C(=O)[C@H](C(C)(C)C)NC(=O)O[C@@H]2C[C@@H]4C[C@@H]4[C@H]2CCCCC3)[C@H](C(=O)N[C@]2(C(=O)NS(=O)(=O)C3(C)CC3)C[C@H]2C(F)F)[C@@H]1C [Example 49, (1aS,2aR,6S,9S,10S,11R,23aR,23bS)-6-tert-butyl-N-[(1R,2R)-2-(difluoromethyl)-1-{[(1-methylcyclopropyl)sulfonyl]carbamoyl}cyclopropyl]-15-methoxy-10-methyl-4,7-dioxo-1a,2,2a,4,5,6,7,10,11,19,20,21,22,23,23a,23b-hexadecahydro-1H,9H-8,11-methanocyclopropa[4′,5′]cyclopenta[1′,2′:18,19][1,10,3,6]dioxadiazacyclononadecino[11,12-b]quinoxaline-9-carboxamide]
EC50 [1]: 3.7 nM | EC50 [2]: 20 nM | EC50 [3]: 3.5 nM | EC50 [4]: 4.1 nM | EC50 [5]: 3.5 nM | EC50 [6]: 3.8 nM | EC50 [7]: 2.8 nM | EC50 [8]: 5.2 nM | EC50 [9]: 6.3 nM | EC50 [10]: 4.2 nM

CC[C@@H]1[C@@H]2CN(C(=O)[C@H](C(C)(C)C)NC(=O)O[C@@H]3C[C@H]3CCCCC(F)(F)c3nc4ccc(OC)cc4nc3O2)[C@@H]1C(=O)NC1(C(=O)NS(=O)(=O)C2(C)CC2)C[C@H]1CC (stereo partly drawn) [Example 93, (1aR,5S,8S,9S,10R,22aR)-5-tert-butyl-9-ethyl-N-[(2R)-2-ethyl-1-{[(1-methylcyclopropyl)sulfonyl]carbamoyl}cyclopropyl]-18,18-difluoro-14-methoxy-3,6-dioxo-1,1a,3,4,5,6,9,10,18,19,20,21,22,22a-tetradecahydro-8H-7,10-methanocyclopropa[18,19][1,10,3,6]dioxadiazacyclononadecino[11,12-b]quinoxaline-8-carboxamide]
EC50 [1]: 12 nM | EC50 [2]: 116 nM | EC50 [3, 11]: 13 nM | EC50 [4]: 14 nM | EC50 [5]: 11 nM | EC50 [6]: 13 nM | EC50 [7, 12]: 14 nM | EC50 [8]: 15 nM | EC50 [9, 13]: 26 nM | EC50 [10]: 39 nM

CC[C@@H]1[C@@H]2CN(C(=O)[C@H](C(C)(C)C)NC(=O)O[C@@H]3C[C@H]3CCCCCc3nc4ccc(OC)cc4nc3O2)[C@@H]1C(=O)N[C@]1(C(=O)NS(=O)(=O)C2(C)CC2)C[C@H]1CC [Example 4, (1aR,5S,8S,9S,10R,22aR)-5-tert-butyl-9-ethyl-N-[(1R,2R)-2-ethyl-1-{[(1-methylcyclopropyl)sulfonyl]carbamoyl}cyclopropyl]-14-methoxy-3,6-dioxo-1,1a,3,4,5,6,9,10,18,19,20,21,22,22a-tetradecahydro-8H-7,10-methanocyclopropa[18,19][1,10,3,6]dioxadiazacyclononadecino[11,12-b]quinoxaline-8-carboxamide]
EC50 [1]: 10.7 nM | EC50 [2]: 271 nM | EC50 [3, 11]: 7.1 nM | EC50 [4]: 9.6 nM | EC50 [5]: 7.9 nM | EC50 [6]: 20 nM | EC50 [7, 12]: 6.5 nM | EC50 [8]: 16 nM | EC50 [9, 13]: 68 nM | EC50 [10]: 66 nM
